Measurements published in PMC10112232, “Comparison of Toxicities among Different Bumped Kinase Inhibitor Analogs for Treatment of Cryptosporidiosis” (Antimicrobial Agents and Chemotherapy, 2023).
Values after ≈ are worked out from the molar mass of the structure shown. Like-named read-outs stand apart in the source and are kept apart here.

How the values were obtained:
[1] = molecular target: T1, C. parvum calcium dependent protein kinase 1 (CpCDPK1) (Cryptosporidium parvum, UniProt A3FQ16); experiment: In vitro inhibition of CpCDPK1; type: biochemical
T1 sequence (A3FQ16 1-538): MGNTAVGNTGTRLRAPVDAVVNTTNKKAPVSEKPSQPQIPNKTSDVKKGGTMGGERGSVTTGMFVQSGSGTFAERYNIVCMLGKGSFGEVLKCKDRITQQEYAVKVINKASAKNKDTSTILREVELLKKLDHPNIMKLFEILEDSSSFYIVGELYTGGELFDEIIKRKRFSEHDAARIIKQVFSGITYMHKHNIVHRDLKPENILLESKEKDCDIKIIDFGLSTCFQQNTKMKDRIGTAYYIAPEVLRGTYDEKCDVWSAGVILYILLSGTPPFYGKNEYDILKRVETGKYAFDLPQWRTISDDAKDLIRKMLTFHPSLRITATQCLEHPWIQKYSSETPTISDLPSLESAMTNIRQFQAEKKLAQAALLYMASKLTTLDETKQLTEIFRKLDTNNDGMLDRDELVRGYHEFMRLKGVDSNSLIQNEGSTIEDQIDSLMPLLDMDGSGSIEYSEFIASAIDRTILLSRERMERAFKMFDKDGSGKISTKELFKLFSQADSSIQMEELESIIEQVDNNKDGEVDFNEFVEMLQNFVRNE
Excerpt: (§1) Methods for synthesis of BKIs ([17], [23]), efficacy against Nluc expressing C. parvum in infected adult IFN-γ KO mice ([6], [9]), in vivo mouse GI tract tissue exposure by LC/MS-MS analysis ([18], [28]), PK analysis of mouse plasma and brain tissue BKI concentrations by LC/MS-MS analysis ([29]), in vivo rat and dog cardiotoxicity screen ([30]), efficacy against IOWA-II strain C. parvum in infected neonatal calves ([13]), efficacy against C. hominis in infected piglets ([12]), in vitro inhibition of C. parvum CDPK1 (CpCDPK1) and human tyrosine kinase SRC (HsSRC) activity ([31]), in vitro inhibition of hERG ([32]), Nluc expressing C. parvum in vitro growth inhibition in infected HCT-8 cells ([6]), in vitro cytotoxicity in CRL-8155 and HepG2 cells ([29]), and mouse locomotor activity box ([33], [34]) have all been previously described. Analytes were measured by LC/MS-MS on an Acquity ultra performance liquid chromatography (UPLC) system in tandem with a Xevo TQ-S mass spectrometer (Waters, Milford, MA, USA).

[2] = system: Nluc expressing C. parvum; experiment: Nluc expressing C. parvum in vitro growth inhibition in infected HCT-8 cells; type: cell-based; conditions: Cryptosporidium parvum
Excerpt: as §1

[3] = molecular target: human tyrosine kinase SRC (HsSRC) (Homo sapiens, UniProt P12931); experiment: In vitro inhibition of HsSRC; type: biochemical; conditions: read-out: HsSR IC50
Chain of human tyrosine kinase SRC (HsSRC) (P12931 whole entry): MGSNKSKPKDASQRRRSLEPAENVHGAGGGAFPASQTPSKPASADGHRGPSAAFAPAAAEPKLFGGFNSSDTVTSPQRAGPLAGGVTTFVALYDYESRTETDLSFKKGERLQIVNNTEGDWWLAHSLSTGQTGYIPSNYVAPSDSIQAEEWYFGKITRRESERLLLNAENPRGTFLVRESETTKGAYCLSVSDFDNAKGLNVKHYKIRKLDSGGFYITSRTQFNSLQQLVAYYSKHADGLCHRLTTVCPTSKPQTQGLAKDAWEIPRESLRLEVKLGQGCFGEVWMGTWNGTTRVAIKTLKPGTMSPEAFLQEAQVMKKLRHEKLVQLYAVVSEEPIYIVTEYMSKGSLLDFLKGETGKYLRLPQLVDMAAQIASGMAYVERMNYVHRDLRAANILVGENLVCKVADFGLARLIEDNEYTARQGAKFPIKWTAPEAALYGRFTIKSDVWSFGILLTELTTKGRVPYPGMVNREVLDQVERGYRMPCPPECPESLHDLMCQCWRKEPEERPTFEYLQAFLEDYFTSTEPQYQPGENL
Excerpt: as §1

[4] = In vitro cytotoxicity in HepG2 cells; type: cell-based; conditions: human
Excerpt: as §1

[5] = In vitro cytotoxicity in CRL-8155 cells; type: cell-based; conditions: human
Excerpt: as §1

Aqueous solubility = type: physicochemical
Excerpt: TABLE 1 In vitro properties of bumped kinase inhibitors^a | column: Solubility at pH 2 (μM); Solubility at pH 6.5 (μM)

hERG = hERG (Homo sapiens, UniProt Q12809); conditions: cited from earlier work
Chain of hERG (Q12809 whole entry): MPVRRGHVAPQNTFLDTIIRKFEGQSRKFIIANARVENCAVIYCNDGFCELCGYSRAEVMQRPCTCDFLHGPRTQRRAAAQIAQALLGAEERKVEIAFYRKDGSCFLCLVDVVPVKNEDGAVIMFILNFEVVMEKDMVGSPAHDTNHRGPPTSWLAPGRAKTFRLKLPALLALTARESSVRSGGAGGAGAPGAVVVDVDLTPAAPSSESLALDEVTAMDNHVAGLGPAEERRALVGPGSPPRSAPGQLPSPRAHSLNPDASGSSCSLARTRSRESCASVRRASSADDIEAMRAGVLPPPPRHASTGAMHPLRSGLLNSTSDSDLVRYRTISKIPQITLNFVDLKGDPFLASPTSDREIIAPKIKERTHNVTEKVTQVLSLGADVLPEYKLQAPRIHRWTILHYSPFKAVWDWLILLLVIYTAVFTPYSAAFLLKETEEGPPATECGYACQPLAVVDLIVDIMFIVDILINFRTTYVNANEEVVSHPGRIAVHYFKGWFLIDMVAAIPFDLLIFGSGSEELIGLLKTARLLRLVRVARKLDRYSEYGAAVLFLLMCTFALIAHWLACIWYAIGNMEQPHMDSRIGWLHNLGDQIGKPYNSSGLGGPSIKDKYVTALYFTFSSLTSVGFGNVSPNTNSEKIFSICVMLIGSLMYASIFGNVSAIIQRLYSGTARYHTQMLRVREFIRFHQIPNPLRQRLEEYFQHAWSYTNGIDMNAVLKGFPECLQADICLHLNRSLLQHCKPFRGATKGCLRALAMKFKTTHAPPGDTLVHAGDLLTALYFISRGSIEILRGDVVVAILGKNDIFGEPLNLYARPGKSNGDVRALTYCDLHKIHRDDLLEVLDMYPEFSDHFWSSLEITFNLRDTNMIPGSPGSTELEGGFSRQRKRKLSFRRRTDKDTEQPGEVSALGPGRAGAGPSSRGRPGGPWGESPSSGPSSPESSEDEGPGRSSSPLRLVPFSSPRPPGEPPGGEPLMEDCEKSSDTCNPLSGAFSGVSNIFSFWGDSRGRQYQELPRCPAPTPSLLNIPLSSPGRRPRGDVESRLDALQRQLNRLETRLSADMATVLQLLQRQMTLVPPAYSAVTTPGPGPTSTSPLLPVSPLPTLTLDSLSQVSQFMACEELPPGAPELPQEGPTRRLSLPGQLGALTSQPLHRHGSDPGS

[6] = Cardiovascular testing in anesthetized dogs; type: in vivo, dog; conditions: dogs (data not shown)
Excerpt: as §1

[7] = rat, in vivo; cited from earlier work
Cryptosporidium = system: Cryptosporidium; parameters: method as in PMID 12423984, PMID 11398117, PMID 26568906; conditions: malnourished children (subtracting placebo efficacy); cited from earlier work

## CC(C)(CCO)n1nc(-c2ccc3cc(O)ccc3c2)c(C(N)=O)c1N [1770-M5]
[1]
  IC50: 0.018 µM
[2]
  EC50: 2.1 µM
[3]
  IC50: 5.4 µM
[4]
  CC50: > 80 µM
[5]
  CC50: > 80 µM
Aqueous solubility; aqueous medium at pH 2, pH 2, simulated gastric fluid, read-out: Solubility at pH 2
  solubility: 89 µM (≈ 31.5 µg/mL)
Aqueous solubility; aqueous medium at pH 6.5, pH 6.5, aqueous buffer, read-out: Solubility at pH 6.5
  solubility: > 100 µM

## CCOc1ccc2cc(-c3nn(CC4CCN(C)CC4)c4ncnc(N)c34)ccc2c1 [BKI-1294]
hERG
  inhibition of hERG in vitro: submicromolar range

## CCOc1ccc2cc(-c3nn(CC4CCN(C)CC4)c4ncnc(N)c34)ccc2n1 [BKI-1369]
[6]
  cardiotoxicity in vivo: Cardiotoxicity was additionally seen
hERG
  cardiotoxicity in the in vitro hERG assay: Cardiotoxicity was additionally seen
[7]
  cardiotoxicity in vivo: Cardiotoxicity was additionally seen

## CC(=O)Oc1ccccc1C(=O)Nc1ncc([N+](=O)[O-])s1 [Nitazoxanide]
Cryptosporidium
  efficacy: about 30%
